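Values below derive from 48-hour exposures of cells grown in 96-well plates, with endpoints linearly interpolated between the two concentrations bracketing the appropriate inhibition level. TGI marks complete inhibition of growth.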
Tests used:
Assay in all cases: NCI-60 cell line screen, 48 h
SK-MEL-5 melanoma = system: SK-MEL-5 melanoma
HCT-15 colon = system: HCT-15 colon
HCT-116 colon = system: HCT-116 colon
SF-539 CNS = system: SF-539 CNS
A498 renal = system: A498 renal
OVCAR-8 ovarian = system: OVCAR-8 ovarian
KM12 colon = system: KM12 colon
T-47D breast = system: T-47D breast
SK-MEL-28 melanoma = system: SK-MEL-28 melanoma
UO-31 renal = system: UO-31 renal
MDA-MB-231 breast = system: MDA-MB-231 breast
MDA-N = system: MDA-N
OVCAR-3 ovarian = system: OVCAR-3 ovarian
COLO 205 colon = system: COLO 205 colon
SN12C renal = system: SN12C renal
SNB-19 CNS = system: SNB-19 CNS
RPMI-8226 leukemia = system: RPMI-8226 leukemia
A549 NSCLC = system: A549 NSCLC
MALME-3M melanoma = system: MALME-3M melanoma
SR leukemia = system: SR leukemia
SF-268 CNS = system: SF-268 CNS
786-0 renal = system: 786-0 renal
NCI-H23 lung = system: NCI-H23 lung
MDA-MB-435 = system: MDA-MB-435
MCF7 breast = system: MCF7 breast
HT29 colon = system: HT29 colon
NCI/ADR-RES ovarian = system: NCI/ADR-RES ovarian
MOLT-4 leukemia = system: MOLT-4 leukemia
SNB-75 CNS = system: SNB-75 CNS
OVCAR-5 ovarian = system: OVCAR-5 ovarian
IGROV1 ovarian = system: IGROV1 ovarian
HOP-62 NSCLC = system: HOP-62 NSCLC
M14 melanoma = system: M14 melanoma
SK-OV-3 ovarian = system: SK-OV-3 ovarian
CCRF-CEM leukemia = system: CCRF-CEM leukemia
TK-10 renal = system: TK-10 renal
SW-620 colon = system: SW-620 colon
SK-MEL-2 melanoma = system: SK-MEL-2 melanoma
PC-3 prostate = system: PC-3 prostate
HS 578T breast = system: HS 578T breast
HL-60(TB) leukemia = system: HL-60(TB) leukemia
DU-145 prostate = system: DU-145 prostate
HCC-2998 colon = system: HCC-2998 colon
NCI-H460 lung = system: NCI-H460 lung
OVCAR-4 ovarian = system: OVCAR-4 ovarian
CAKI-1 renal = system: CAKI-1 renal
UACC-62 melanoma = system: UACC-62 melanoma
EKVX NSCLC = system: EKVX NSCLC
RXF 393 renal = system: RXF 393 renal
NCI-H522 lung = system: NCI-H522 lung
NCI-H226 lung = system: NCI-H226 lung
SF-295 CNS = system: SF-295 CNS
K-562 leukemia = system: K-562 leukemia
UACC-257 melanoma = system: UACC-257 melanoma
ACHN renal = system: ACHN renal
HOP-92 NSCLC = system: HOP-92 NSCLC
LOX IMVI melanoma = system: LOX IMVI melanoma
U251 CNS = system: U251 CNS

## CN(C)C=Nc1ccc2nonc2c1
SK-MEL-5 melanoma
  TGI: > 100 µM
HCT-15 colon
  TGI: > 100 µM
HCT-116 colon
  TGI: > 100 µM
SF-539 CNS
  TGI: > 100 µM
A498 renal
  TGI: > 100 µM
OVCAR-8 ovarian
  TGI: > 100 µM
KM12 colon
  TGI: > 100 µM
T-47D breast
  TGI: > 100 µM
SK-MEL-28 melanoma
  TGI: > 100 µM
UO-31 renal
  TGI: > 100 µM
MDA-MB-231 breast
  TGI: > 100 µM
MDA-N
  TGI: > 100 µM
OVCAR-3 ovarian
  TGI: > 100 µM
COLO 205 colon
  TGI: > 100 µM
SN12C renal
  TGI: > 100 µM
SNB-19 CNS
  TGI: > 100 µM
RPMI-8226 leukemia
  TGI: > 100 µM
A549 NSCLC
  TGI: > 100 µM
MALME-3M melanoma
  TGI: > 100 µM
SR leukemia
  TGI: > 100 µM
SF-268 CNS
  TGI: > 100 µM
786-0 renal
  TGI: > 100 µM
NCI-H23 lung
  TGI: > 100 µM
MDA-MB-435
  TGI: > 100 µM
MCF7 breast
  TGI: > 100 µM
HT29 colon
  TGI: > 100 µM
NCI/ADR-RES ovarian
  TGI: > 100 µM
MOLT-4 leukemia
  TGI: > 100 µM
SNB-75 CNS
  TGI: > 100 µM
OVCAR-5 ovarian
  TGI: > 100 µM
IGROV1 ovarian
  TGI: > 100 µM
HOP-62 NSCLC
  TGI: > 100 µM
M14 melanoma
  TGI: > 100 µM
SK-OV-3 ovarian
  TGI: > 100 µM
CCRF-CEM leukemia
  TGI: > 100 µM
TK-10 renal
  TGI: > 100 µM
SW-620 colon
  TGI: > 100 µM
SK-MEL-2 melanoma
  TGI: > 100 µM
PC-3 prostate
  TGI: > 100 µM
HS 578T breast
  TGI: > 100 µM
HL-60(TB) leukemia
  TGI: > 100 µM
DU-145 prostate
  TGI: > 100 µM
HCC-2998 colon
  TGI: > 100 µM
NCI-H460 lung
  TGI: > 100 µM
OVCAR-4 ovarian
  TGI: > 100 µM
CAKI-1 renal
  TGI: > 100 µM
UACC-62 melanoma
  TGI: > 100 µM
EKVX NSCLC
  TGI: > 100 µM
RXF 393 renal
  TGI: > 100 µM
NCI-H522 lung
  TGI: > 100 µM
NCI-H226 lung
  TGI: > 100 µM
SF-295 CNS
  TGI: > 100 µM
K-562 leukemia
  TGI: > 100 µM
UACC-257 melanoma
  TGI: > 100 µM
ACHN renal
  TGI: > 100 µM

## CC(C)=CCC/C(C)=C\CC/C(C)=C/CO
SK-MEL-5 melanoma
  TGI: 61.8 µM
HOP-92 NSCLC
  TGI: 22.7 µM
HCT-15 colon
  TGI: > 100 µM
HCT-116 colon
  TGI: 36.9 µM
SF-539 CNS
  TGI: 47.8 µM
OVCAR-8 ovarian
  TGI: 48.7 µM
KM12 colon
  TGI: > 100 µM
LOX IMVI melanoma
  TGI: > 10 µM
T-47D breast
  TGI: > 100 µM
SK-MEL-28 melanoma
  TGI: > 100 µM
UO-31 renal
  TGI: > 100 µM
MDA-MB-231 breast
  TGI: > 100 µM
MDA-N
  TGI: > 100 µM
OVCAR-3 ovarian
  TGI: 30.4 µM
COLO 205 colon
  TGI: > 100 µM
SN12C renal
  TGI: > 100 µM
SNB-19 CNS
  TGI: 65.6 µM
RPMI-8226 leukemia
  TGI: 36.9 µM
A549 NSCLC
  TGI: > 100 µM
MALME-3M melanoma
  TGI: 32.3 µM
SR leukemia
  TGI: 47.6 µM
SF-268 CNS
  TGI: > 100 µM
786-0 renal
  TGI: 31.1 µM
NCI-H23 lung
  TGI: 62.2 µM
MDA-MB-435
  TGI: 38.3 µM
MCF7 breast
  TGI: 38.2 µM
HT29 colon
  TGI: 37.6 µM
NCI/ADR-RES ovarian
  TGI: 42.6 µM
MOLT-4 leukemia
  TGI: 42.9 µM
SNB-75 CNS
  TGI: > 100 µM
OVCAR-5 ovarian
  TGI: > 100 µM
IGROV1 ovarian
  TGI: 55.9 µM
HOP-62 NSCLC
  TGI: 40.3 µM
M14 melanoma
  TGI: 37.2 µM
CCRF-CEM leukemia
  TGI: 43.7 µM
TK-10 renal
  TGI: > 100 µM
SW-620 colon
  TGI: > 100 µM
SK-MEL-2 melanoma
  TGI: 30.4 µM
PC-3 prostate
  TGI: > 100 µM
HS 578T breast
  TGI: 67.9 µM
HL-60(TB) leukemia
  TGI: 35.4 µM
DU-145 prostate
  TGI: > 100 µM
HCC-2998 colon
  TGI: 43.1 µM
NCI-H460 lung
  TGI: > 10 µM
OVCAR-4 ovarian
  TGI: 50.4 µM
CAKI-1 renal
  TGI: > 10 µM
EKVX NSCLC
  TGI: > 100 µM
U251 CNS
  TGI: 33.3 µM
NCI-H522 lung
  TGI: 27.2 µM
NCI-H226 lung
  TGI: > 100 µM
SF-295 CNS
  TGI: 57.2 µM
K-562 leukemia
  TGI: 42.2 µM
UACC-257 melanoma
  TGI: > 100 µM
ACHN renal
  TGI: 70.7 µM

Reference: PubChem BioAssay (NCI)
